Test results taken from article PMC9112550, “Optimization of the antimicrobial peptide Bac7 by deep mutational scanning” (BMC Biology, 2022).
Where no end group is shown, it is not given here.

Assays:
E. coli ATCC 25922 = assay: In vivo efficacy, murine septicemia model; conditions: 10 CD-1 mice, up to 3 days
Procedure: CD-1 mice (7 weeks old, 27–28 g female) were used (Charles River, France). These animals were housed for a week of acclimation period before the experiment in a protected area in the ‘Centre de Zootechnie de l’Université de Bourgogne’ (Biosafety level 2 facility) and fed ad libitum according to the current recommendations by the European Institute of Health. Housing took place in rooms where a 12-h/12 h light/dark cycle is applied, the temperature ranges from 18 to 21°C and the relative humidity from 45 to 65%. The animal facility is authorized by the French authorities (Agreement N° C 21 464 04 EA). […]
For animal experiments, Bac7PS was synthesized at Genscript as acetate salt and with a purity of 92%. […] First, the maximum tolerated dose (MTD) for the peptide was determined by testing different peptide doses in 8 groups with 5 animals per group. The peptide solution was administered once by intraperitoneal (IP) injection with a volume of between 94 and 240 μl (depending on the weight of the animal and the dosage) and the animals were monitored for 2 h following the injection, then 6 to 8 h later, and then once or twice a day, depending on the clinical status, up to 5 days post-injection. […] As endpoint, the wellbeing and survival rate, on a twice daily based evaluation for up to 3 days, was monitored.

[1] = tested on: HEK 293 cells transfected with a luciferase construct; assay: Whole cell translation inhibition assay; type: cell-based, human; conditions: HEK 293 whole-cell assay; 24 h incubation; luminescence; n = 1
Procedure: HEK293 cells were cultivated in DMEM medium supplemented with 10% fetal bovine serum and transfected with vector pRM-hFluc carrying a Fluc gene under constitutive CMV promotor control using Xfect™ Transfection Reagent (Takara, Japan) according to the manufacturer’s protocol. Transfected cells were seeded into a 24-well plate 6 h post-transfection and pre-incubated overnight prior to addition of peptides in the next morning. Following 24 h of incubation in the presence of the peptides, cells were lysed using Lysis Buffer (Promega) and the luminescence was measured in a white microtiter plate using the FLx800 luminometer (Bio-Tek Instruments, USA).

HEK 293 ribosomes = assay: In vitro translation inhibition assay, HEK 293 S30 extract; type: biochemical, human; conditions: firefly luciferase mRNA, 800 to 0.08 μM, 1 h, 37°C, n = 9, p<10^−5, Wilcoxon
Procedure: To measure inhibition of the HEK 293 ribosome, an S30 extract was prepared from HEK 293-F cells. Suspension cultures of HEK 293-F cells (Gibco, Thermo Fisher) were maintained in 293 SFM II medium (Thermo Fisher) supplemented with 4 mM of L-glutamine according to the manufacturer’s instructions. Cells in the logarithmic phase were harvested by centrifugation for 18 min at 200 × g at 4°C. The cell pellet was washed twice with ice-cold PBS and pelleted again for 5 min at 200 × g at 4°C. Subsequently, cells were washed twice with ice-cold washing buffer (35 mM HEPES-KOH buffer pH 7.4, 146 mM NaCl, 11 mM D-(+)-glucose) and centrifuged for 5 min at 200 × g and 4°C. Cells were then resuspended in twice the volume of hypotonic buffer (20 mM HEPES-KOH buffer pH7.4, 10 mM KCl, 1.5 mM magnesium acetate, 1 mM DTT) and incubated for 10 min on ice. Cells were disrupted using a glass Dounce tissue homogenizer (Kimble, DWK Life Sciences, Mainz, Germany). After disruption, 0.1 volume of 10fold buffer (200 mM HEPES-KOH buffer pH 7.4, 1.2 M potassium acetate, 40 mM magnesium acetate, 50 mM DTT) of the total amount of hypotonic buffer was added. Cell debris was pelleted by centrifuging the lysate for 10 min at 700 × g at 4°C. The supernatant was then centrifuged for 15 min at 30,000 × g at 4°C.
(BIO-TEK FLx80, Witec AG, Littau, CH). […] Y=Bottom + (Top-Bottom)/(1+10^((X-LogIC50)))”.

RRIRIRPPRLPRPRPRPYFMPRP [Bac7PS]
survival (E. coli ATCC 25922; 10 mg kg^−1 IP twice (1 and 4 h post-infection)): 60%
survival (E. coli ATCC 25922; 30 mg kg^−1 IP twice (1 and 4 h post-infection)): 80%
concentration above which increased translational inhibition relative to Bac7_1-23 appeared [1]: above 200 μM
mean increase in ribosomal binding (translation inhibition IC50), HEK 293 ribosomes, compared to Bac7_1-23 (HEK 293 ribosomes): 38%
